# The source made the active and inactive calls.
# Experiments:
# [1] = molecular target: T1, Corticotropin-releasing factor receptor 2/Corticotropin-releasing factor-binding protein (Homo sapiens, UniProt P24387+Q13324); test: Dose Response confirmation of uHTS hits for small molecule antagonists of the CRF-binding protein and CRF-R2 receptor complex.; assay type: functional; settings: read-out: IC50_Mean
# T1 sequence (Q13324 whole entry): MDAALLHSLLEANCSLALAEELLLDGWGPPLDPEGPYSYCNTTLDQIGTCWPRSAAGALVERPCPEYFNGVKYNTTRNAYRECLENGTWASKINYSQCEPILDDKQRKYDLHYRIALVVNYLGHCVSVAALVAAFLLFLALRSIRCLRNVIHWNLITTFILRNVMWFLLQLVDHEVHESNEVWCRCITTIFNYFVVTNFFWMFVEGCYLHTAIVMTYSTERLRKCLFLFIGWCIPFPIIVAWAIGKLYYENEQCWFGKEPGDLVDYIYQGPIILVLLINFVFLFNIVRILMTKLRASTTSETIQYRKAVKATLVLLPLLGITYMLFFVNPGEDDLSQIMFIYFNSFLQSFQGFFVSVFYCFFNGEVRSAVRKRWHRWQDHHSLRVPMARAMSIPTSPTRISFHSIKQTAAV
# T1 sequence (P24387 whole entry): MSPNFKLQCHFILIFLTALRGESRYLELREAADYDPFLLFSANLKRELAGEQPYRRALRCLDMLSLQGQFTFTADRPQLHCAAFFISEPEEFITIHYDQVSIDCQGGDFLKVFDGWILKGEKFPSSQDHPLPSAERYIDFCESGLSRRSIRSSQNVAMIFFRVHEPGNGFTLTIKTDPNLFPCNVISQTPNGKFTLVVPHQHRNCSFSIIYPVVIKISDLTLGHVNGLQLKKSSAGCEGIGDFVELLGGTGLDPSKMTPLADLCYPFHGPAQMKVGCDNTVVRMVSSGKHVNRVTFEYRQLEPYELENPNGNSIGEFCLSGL
# [2] = molecular target: T1, Corticotropin-releasing factor receptor 2/Corticotropin-releasing factor-binding protein; test: activators of CRF receptor 2 with binding protein – uHTS hits, confirmation (AID 602473); assay type: functional; settings: read-out: EC50_Mean
# Protein RecA = molecular target: T2, Protein RecA (Mycobacterium tuberculosis, UniProt P9WHJ3); test: Fluorescence Cell-Free Homogeneous Dose Retest to Identify Inhibitors of RecA-Intein Splicing Activity. [Related pubchem assays (depositor defined):AID2097, AID2223, AID489010, AID492950]; assay type: functional
# T2 sequence (P9WHJ3 whole entry): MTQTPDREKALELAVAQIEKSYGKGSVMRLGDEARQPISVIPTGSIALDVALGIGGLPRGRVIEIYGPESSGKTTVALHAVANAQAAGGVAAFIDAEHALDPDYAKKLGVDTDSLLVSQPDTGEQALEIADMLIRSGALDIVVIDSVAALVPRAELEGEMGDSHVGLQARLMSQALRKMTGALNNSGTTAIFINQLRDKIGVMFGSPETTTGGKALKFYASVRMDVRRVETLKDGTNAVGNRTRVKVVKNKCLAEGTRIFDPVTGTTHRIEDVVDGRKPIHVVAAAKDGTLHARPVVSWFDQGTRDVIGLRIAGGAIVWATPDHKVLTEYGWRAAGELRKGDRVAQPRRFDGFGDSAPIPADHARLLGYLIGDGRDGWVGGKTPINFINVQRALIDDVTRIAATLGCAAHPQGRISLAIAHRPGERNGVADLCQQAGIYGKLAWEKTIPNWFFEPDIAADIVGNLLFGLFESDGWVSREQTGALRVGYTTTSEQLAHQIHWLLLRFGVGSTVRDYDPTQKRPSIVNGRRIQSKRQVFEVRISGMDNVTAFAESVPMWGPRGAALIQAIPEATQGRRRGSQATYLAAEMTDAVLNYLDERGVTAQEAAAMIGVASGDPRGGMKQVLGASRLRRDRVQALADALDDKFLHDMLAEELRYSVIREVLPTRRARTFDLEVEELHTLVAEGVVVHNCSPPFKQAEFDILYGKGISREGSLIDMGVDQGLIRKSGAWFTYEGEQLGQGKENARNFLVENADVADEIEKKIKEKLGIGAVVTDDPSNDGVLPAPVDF
# [3] = molecular target: T3, Replicative DNA helicase DnaB (Mycobacterium tuberculosis, UniProt P9WMR3); test: DnaB intein splicing inhibitors, dose response, biochemical, cell-free fluorescence (AID 449749); assay type: functional
# T3 sequence (P9WMR3 whole entry): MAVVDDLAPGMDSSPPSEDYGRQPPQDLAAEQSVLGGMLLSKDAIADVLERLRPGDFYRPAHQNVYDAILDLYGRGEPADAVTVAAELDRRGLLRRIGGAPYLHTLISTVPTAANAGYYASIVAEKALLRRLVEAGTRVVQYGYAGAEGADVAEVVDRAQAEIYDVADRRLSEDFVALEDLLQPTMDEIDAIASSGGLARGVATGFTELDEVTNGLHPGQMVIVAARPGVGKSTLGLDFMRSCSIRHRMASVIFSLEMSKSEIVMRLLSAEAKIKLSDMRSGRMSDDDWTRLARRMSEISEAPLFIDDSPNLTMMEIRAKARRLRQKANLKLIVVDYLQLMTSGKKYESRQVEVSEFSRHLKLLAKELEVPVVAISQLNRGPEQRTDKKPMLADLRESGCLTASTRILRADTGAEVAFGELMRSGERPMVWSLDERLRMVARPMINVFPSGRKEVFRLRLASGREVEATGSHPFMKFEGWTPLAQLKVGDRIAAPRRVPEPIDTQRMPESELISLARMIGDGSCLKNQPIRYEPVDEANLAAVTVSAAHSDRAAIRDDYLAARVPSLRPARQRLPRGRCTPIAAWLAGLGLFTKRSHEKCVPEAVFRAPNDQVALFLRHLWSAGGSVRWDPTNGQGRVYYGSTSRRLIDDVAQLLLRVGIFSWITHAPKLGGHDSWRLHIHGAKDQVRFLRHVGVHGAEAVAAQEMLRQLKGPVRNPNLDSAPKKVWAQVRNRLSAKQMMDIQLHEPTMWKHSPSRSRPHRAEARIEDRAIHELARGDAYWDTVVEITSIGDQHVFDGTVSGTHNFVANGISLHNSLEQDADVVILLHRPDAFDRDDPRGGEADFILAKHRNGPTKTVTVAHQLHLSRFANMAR
# H9c2 = test: cells; assay type: functional, cell-based; settings: Rattus norvegicus, H9c2, Myocardium;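 further: confirmatory concentration-response retest of ultra-high-throughput screening hits for modulation of myocardial damage; cell death induced by hydrogen peroxide oxidative stress; compound pretreatment for 60 min then peroxide exposure for 2 h; potency is for protecting the cells against peroxide damage rather than for killing them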
# Fatty acid synthase [4] = molecular target: T4, Fatty acid synthase (Homo sapiens, UniProt P49327); test: inhibition of human FAS-TE enzyme activity – biochemical, endpoint fluorescence intensity, uHTS hits, dose response (AID 624327); assay type: functional;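 further: fluorescence from hydrolysis of an O-methyl fluorescein acyl ester substrate by the enzyme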
# Fatty acid synthase [5] = molecular target: T4, Fatty acid synthase; test: inhibition of human FAS-TE enzyme activity – biochemical, kinetic fluorescence intensity, dose response (AID 624326); assay type: functional;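 further: rate of fluorescence rise from hydrolysis of a fluorogenic O-methyl fluorescein ester substrate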
# [6] = fluconazole-exposed Candida albicans growth modulators – fluorescence, retest, confirmation (AID 2467); assay type: functional, cell-based
# [7] = NIH-3T3 fibroblast cytotoxicity, dose response, cytotoxicity control, cell-based, fluorescence, Alamar Blue, secondary assay (AID 2327); assay type: functional;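 further: NIH-3T3 mouse fibroblasts cultured with fluconazole at 8 µg/mL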
# [8] = NIH3T3 cell viability loss – ATP luminescence, mouse fibroblasts, counter-screen, dose response (AID 2010); assay type: functional, cell-based;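 further: cells exposed to compound for about 90 hours before reading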
# [9] = Trypanosoma cruzi growth suppression in host cells – NIH3T3 host cells, beta-gal luminescence, confirmation (AID 2044); assay type: functional, cell-based;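 further: intracellular parasites grown in NIH/3T3 mouse fibroblasts as host cells; luminescent beta-galactosidase reporter signal from transgenic T. cruzi replicating inside host cells; inhibitors lower the luminescence signal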
# Cytochrome P450 3A4 = Cytochrome P450 3A4 (Homo sapiens, UniProt P08684);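 further: CYP3A4 tested as one member of a cytochrome P450 panel screen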
# Chain of Cytochrome P450 3A4 (P08684 whole entry): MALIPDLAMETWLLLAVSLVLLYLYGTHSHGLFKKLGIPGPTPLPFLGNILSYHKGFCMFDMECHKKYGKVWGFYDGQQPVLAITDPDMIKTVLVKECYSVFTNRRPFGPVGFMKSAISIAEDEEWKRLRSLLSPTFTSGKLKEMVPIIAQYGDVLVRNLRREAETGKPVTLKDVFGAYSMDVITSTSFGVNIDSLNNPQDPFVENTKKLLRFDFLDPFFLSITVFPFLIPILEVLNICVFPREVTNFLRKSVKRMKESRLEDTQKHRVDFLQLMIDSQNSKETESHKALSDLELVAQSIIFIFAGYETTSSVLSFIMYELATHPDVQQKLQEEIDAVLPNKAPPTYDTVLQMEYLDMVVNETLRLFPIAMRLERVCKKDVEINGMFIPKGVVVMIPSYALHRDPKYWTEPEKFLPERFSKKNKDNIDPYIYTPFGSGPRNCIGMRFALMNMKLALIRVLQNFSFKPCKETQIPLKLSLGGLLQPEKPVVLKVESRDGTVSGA
# T4 sequence (P49327 whole entry): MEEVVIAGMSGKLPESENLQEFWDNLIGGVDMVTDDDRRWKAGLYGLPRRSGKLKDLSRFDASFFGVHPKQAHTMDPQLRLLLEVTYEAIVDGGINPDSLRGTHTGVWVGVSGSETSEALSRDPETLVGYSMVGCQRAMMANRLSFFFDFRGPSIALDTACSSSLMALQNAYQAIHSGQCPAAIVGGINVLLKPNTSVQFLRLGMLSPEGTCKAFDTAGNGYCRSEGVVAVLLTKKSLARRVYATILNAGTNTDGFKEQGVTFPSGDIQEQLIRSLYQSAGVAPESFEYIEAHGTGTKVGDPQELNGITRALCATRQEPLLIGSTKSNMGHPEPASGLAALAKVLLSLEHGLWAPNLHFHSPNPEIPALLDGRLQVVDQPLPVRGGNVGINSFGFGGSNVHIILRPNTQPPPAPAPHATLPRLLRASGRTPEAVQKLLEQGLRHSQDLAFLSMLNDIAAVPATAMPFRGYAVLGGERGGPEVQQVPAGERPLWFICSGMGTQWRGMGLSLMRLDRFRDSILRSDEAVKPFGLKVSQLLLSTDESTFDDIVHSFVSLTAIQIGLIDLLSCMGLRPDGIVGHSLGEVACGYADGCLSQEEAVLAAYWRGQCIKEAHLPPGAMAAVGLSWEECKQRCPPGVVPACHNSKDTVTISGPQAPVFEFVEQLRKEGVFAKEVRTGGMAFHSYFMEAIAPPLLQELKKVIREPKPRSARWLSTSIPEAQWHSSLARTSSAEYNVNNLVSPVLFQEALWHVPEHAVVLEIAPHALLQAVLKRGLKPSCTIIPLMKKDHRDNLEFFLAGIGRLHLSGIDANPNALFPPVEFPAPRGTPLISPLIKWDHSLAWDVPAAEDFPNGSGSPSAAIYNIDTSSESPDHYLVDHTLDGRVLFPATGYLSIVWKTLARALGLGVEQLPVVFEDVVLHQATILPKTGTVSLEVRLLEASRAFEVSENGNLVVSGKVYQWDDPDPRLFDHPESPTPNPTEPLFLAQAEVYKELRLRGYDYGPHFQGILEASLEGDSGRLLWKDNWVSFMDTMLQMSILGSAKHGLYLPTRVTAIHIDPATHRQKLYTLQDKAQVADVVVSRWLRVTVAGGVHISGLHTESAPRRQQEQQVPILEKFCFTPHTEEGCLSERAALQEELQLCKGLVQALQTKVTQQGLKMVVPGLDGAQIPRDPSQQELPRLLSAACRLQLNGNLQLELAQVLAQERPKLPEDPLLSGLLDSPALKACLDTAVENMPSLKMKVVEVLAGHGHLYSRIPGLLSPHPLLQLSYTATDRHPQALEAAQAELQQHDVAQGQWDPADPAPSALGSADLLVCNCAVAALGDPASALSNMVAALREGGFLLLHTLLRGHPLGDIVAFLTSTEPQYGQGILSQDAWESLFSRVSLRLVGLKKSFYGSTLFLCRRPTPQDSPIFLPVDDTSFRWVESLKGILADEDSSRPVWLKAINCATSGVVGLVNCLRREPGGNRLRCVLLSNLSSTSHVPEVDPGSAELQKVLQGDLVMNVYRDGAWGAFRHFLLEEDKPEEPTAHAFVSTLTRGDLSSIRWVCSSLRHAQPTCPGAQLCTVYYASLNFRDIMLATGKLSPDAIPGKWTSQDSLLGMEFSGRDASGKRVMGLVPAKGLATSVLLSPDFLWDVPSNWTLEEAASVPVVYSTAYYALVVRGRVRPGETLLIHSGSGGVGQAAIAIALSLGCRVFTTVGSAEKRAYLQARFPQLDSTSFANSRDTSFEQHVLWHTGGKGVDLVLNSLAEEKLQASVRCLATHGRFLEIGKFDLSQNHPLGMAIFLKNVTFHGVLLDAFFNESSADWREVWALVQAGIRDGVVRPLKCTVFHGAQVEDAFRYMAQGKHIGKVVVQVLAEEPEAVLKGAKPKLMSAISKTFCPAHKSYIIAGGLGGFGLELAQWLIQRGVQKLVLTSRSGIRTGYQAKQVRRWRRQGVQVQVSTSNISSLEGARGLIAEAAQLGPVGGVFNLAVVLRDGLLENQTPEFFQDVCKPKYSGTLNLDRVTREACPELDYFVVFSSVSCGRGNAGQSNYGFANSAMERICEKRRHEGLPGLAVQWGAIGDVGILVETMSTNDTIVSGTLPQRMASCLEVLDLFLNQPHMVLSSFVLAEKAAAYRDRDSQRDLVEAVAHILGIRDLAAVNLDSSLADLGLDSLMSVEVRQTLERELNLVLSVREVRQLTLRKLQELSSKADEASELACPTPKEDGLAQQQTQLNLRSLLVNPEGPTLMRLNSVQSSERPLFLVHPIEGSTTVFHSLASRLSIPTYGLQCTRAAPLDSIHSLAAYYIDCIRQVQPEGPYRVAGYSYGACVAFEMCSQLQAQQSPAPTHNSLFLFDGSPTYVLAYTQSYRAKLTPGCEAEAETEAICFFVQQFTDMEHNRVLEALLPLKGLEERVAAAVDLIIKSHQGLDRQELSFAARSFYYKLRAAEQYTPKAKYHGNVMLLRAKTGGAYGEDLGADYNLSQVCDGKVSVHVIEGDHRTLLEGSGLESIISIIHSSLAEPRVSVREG
compound,measurement,setting,value
COc1ccc(CNC(=O)C2(c3ccc(Cl)cc3)CC2)cc1,IC50,[1],> 47.1 µM (inactive)
same,EC50,[2],> 53 µM (inactive)
CCC(=O)Nc1c(C)nn(C(=O)CC)c1C,EC50,Protein RecA,> 380 µM (inactive)
same,AC50,[3],> 380 µM (inactive)
Cc1ccc(NC(=O)c2cc(=O)c3ccccc3o2)cc1S(=O)(=O)N1CCOCC1,IC50,H9c2,> 79 µM (inactive)
Cc1nn(-c2cccc(Cl)c2)c2c1C(c1cccnc1)C(C#N)=C(N)O2 (stereo unspecified),EC50,Protein RecA,5.05 µM (active)
same,AC50,[3],16.7 µM (active)
OC1=C2C(=Nc3nn(-c4ccccc4)c(O)c3C2c2ccc3c(c2)OCO3)CCC1 (stereo unspecified),EC50,Protein RecA,3.29 µM (active)
same,AC50,[3],40.9 µM (active)
C[C@H](NC(=O)c1[nH]cnc1C(=O)N[C@@H](CCCCNC(=O)OC(C)(C)C)C(=O)OC(C)(C)C)C(=O)OCc1ccccc1,IC50,Fatty acid synthase [4],0.349 µM (active)
same,IC50,Fatty acid synthase [5],0.176 µM (active)
O=C(CSc1nc2ccccc2n1S(=O)(=O)c1cccc([N+](=O)[O-])c1)NCCc1ccccc1,IC50,Fatty acid synthase [4],3.67 µM (active)
same,IC50,Fatty acid synthase [5],2.4 µM (active)
Cc1ccc(-n2c(S)nnc2Cc2ccccc2)c(C)c1,EC50,[6],2.71 µM (active)
same,EC50,[7],> 150 µM (inactive)
O=C(Cn1cnc2c(nnn2Cc2ccc(F)cc2)c1=O)NC1CCCC1,EC50,[6],> 38 µM (not active)
same,EC50,[7],> 150 µM (inactive)
COc1cccc(CN2CCC(Oc3ccc(C(=O)NCc4ccccn4)cc3)CC2)c1O,IC50,[1],> 47.1 µM (inactive)
same,EC50,[2],> 53 µM (inactive)
CCCN(C(=O)c1cc(Cl)nc2ccccc12)C1CCS(=O)(=O)C1 (stereo unspecified),IC50,[1],> 47.1 µM (inactive)
same,EC50,[2],> 53 µM (inactive)
CCCc1cc(O)nc(SCC(=O)Nc2ccc(Br)cc2Br)n1,EC50,[6],1.38 µM (active)
same,EC50,[7],84.5 µM (active)
CC1(C)Cc2ccccc2C(c2cc3ccccc3oc2=O)=N1,IC50,[1],> 47.1 µM (inactive)
same,EC50,[2],> 53 µM (inactive)
COc1ccccc1C(=O)COC(=O)c1c(-c2ccccc2)noc1C,IC50,[1],> 47.1 µM (inactive)
same,EC50,[2],> 53 µM (inactive)
COc1ccc(C(=O)Nc2cc([N+](=O)[O-])ccc2N2CCCC2)cc1,IC50,Fatty acid synthase [4],15.1 µM (active)
same,IC50,Fatty acid synthase [5],12.3 µM (active)
O=C(Nc1ncc([N+](=O)[O-])s1)c1ccco1,EC50,Protein RecA,17.4 µM (active)
same,AC50,[3],24.2 µM (active)
C=CCn1c(SCc2nc(O)c3ccccc3n2)nnc1-c1cc2cc(Cl)ccc2o1,EC50,[6],0.052 µM (active)
same,EC50,[7],> 150 µM (inactive)
O=C(NCCN1C(=O)S/C(=C\c2ccccc2)C1=O)C1CCN(S(=O)(=O)c2cccs2)CC1,IC50,Fatty acid synthase [4],16.2 µM (active)
same,IC50,Fatty acid synthase [5],18.1 µM (active)
COc1ccc(N2C(=O)C(Cl)=C(NCc3ccccc3)C2=O)cc1,EC50,Protein RecA,12.9 µM (active)
same,AC50,[3],68.8 µM (active)
CC(C)(C)c1ccc(C(=O)CS(=O)(=O)c2ccccc2)cc1,IC50,[1],> 47.1 µM (inactive)
same,EC50,[2],> 53 µM (inactive)
Cc1cc(C)c(C#N)c(SCC(=O)c2ccc(Cl)cc2Cl)n1,EC50,[8],> 60 µM (not active)
same,IC50,Fatty acid synthase [4],7.15 µM (active)
same,IC50,Fatty acid synthase [5],4.77 µM (active)
same,EC50,[9],0.169 µM (active)
same,AC50,Cytochrome P450 3A4,17.8 µM (inconclusive)
Cn1c2c(c(=O)n(C)c1=O)C(c1ccc(Br)cc1)Nc1ccccc1O2 (stereo unspecified),IC50,H9c2,25.7 µM (active)
CN(C(=O)c1sc2nc(N3CCOCC3)c3c(c2c1N)CCCC3)c1ccccc1,IC50,H9c2,> 79 µM (inactive)
COc1ccccc1NC(=O)COC(=O)c1cc([N+](=O)[O-])ccc1N1CCCC1,IC50,Fatty acid synthase [4],5 µM (active)
same,IC50,Fatty acid synthase [5],6.41 µM (active)
O=C(O)CC(NC(=O)C(c1ccccc1)c1ccccc1)c1cccc([N+](=O)[O-])c1 (stereo unspecified),IC50,Fatty acid synthase [4],9.02 µM (active)
same,IC50,Fatty acid synthase [5],7.4 µM (active)
O=C(CCNC(=O)c1ccc(Br)cc1)Nc1nccs1,EC50,[6],> 38 µM (not active)
same,EC50,[7],23.9 µM (inconclusive)
CN(CC(=O)Nc1ccc(F)cc1)C(=O)COC(=O)c1cc([N+](=O)[O-])ccc1N1CCOCC1,IC50,Fatty acid synthase [4],6.68 µM (active)
same,IC50,Fatty acid synthase [5],7.99 µM (active)
Cc1c(C(=O)Nc2c(F)cccc2F)sc2ncn(CC(=O)N3CCCCC3)c(=O)c12,IC50,[1],> 47.1 µM (inactive)
same,EC50,[2],> 53 µM (inactive)
O=C(COc1ccc(Cl)cc1Cl)Nc1ccccc1F,IC50,[1],> 47.1 µM (inactive)
same,EC50,[2],> 53 µM (inactive)
CCN(CC(=O)Nc1ccc(NC(C)=O)cc1)C(=O)c1ccc(=O)n(C)n1,IC50,[1],> 47.1 µM (inactive)
same,EC50,[2],> 53 µM (inactive)
COc1ccc(C2CCCCCN2C(=O)C2CCN(S(=O)(=O)c3cccc(C(C)=O)c3)CC2)cc1 (stereo unspecified),IC50,H9c2,> 79 µM (inactive)
COc1cc(CN2C[C@@H](CO)O[C@@H](n3cnc4c(Nc5ccccc5)ncnc43)C2)cc(OC)c1OC,IC50,H9c2,9.14 µM (active)
Cc1nn(-c2ccccc2)nc1C(=O)Nc1cccc(C(=O)NC2CC2)c1,IC50,H9c2,> 79 µM (inactive)
Cc1ccc(C(=O)N/N=C\c2ccccn2)cn1,IC50,[1],> 47.1 µM (inactive)
same,EC50,[2],> 53 µM (inactive)
COc1ccc(C(=O)N/N=C\c2coc3ccc(Cl)cc3c2=O)cc1,EC50,Protein RecA,19.8 µM (active)
same,AC50,[3],> 120 µM (inactive)
O=C(Cc1cc(O)n[nH]1)N/N=C/c1ccccc1Cl,EC50,Protein RecA,1.26 µM (active)
same,AC50,[3],2 µM (active)
Cc1ccc(S(=O)(=O)/N=C(/c2ccccc2)N2CCOCC2)c(C)c1,EC50,[6],> 38 µM (not active)
same,EC50,[7],> 160 µM (inconclusive)
